Results reported in ChEMBL document CHEMBL4811298, “Discovery of novel class of histone deacetylase inhibitors as potential anticancer agents” (Bioorg Med Chem, 2021).
Calls of active or inactive are those of the source. The rule behind the calls is not given here.

Assays:
MCF7 [1] = experiment: Induction of apoptosis in human MCF7 cells assessed as downregulation of c-Myc gene expression at 1 uM measured after 24 hrs whole transcriptome analysis; format: functional, cell-based
[2] = Half life in human liver microsomes at 1 uM measured after 60 mins in presence of NADPH by LC-MS/MS analysis; format: ADME, Microsome
[3] = Metabolic stability of the compound in human liver microsomes assessed as parent compound remaining at 1 uM measured after 60 mins in absence of NADPH by LC-MS/MS analysis; format: ADME, Microsome; conditions: read-out: Stabilty
[4] = Half life in CD-1 mouse liver microsomes at 1 uM measured after 60 mins in presence of NADPH by LC-MS/MS analysis; format: ADME, Microsome
Cytochrome P450 2C9 = Cytochrome P450 2C9 (Homo sapiens, UniProt P11712); experiment: Inhibition of human CYP2C9-1 expressed in insect supersomes assessed as reduction in HFC formation using MFC as substrate measured after 30 mins in presence of NADPH by fluorescence based analysis; format: ADME
Histone deacetylase 1 = Histone deacetylase 1 (Homo sapiens, UniProt Q13547); experiment: Inhibition of C-terminal FLAG/His-tagged human recombinant HDAC1 (1 to 482 residues) expressed in baculovirus-infected Sf9 cells assessed as reduction in 7-amino-4-methylcoumarin release using fluorogenic HDAC substrate 3 measured every 5 mins by fluorescence based analysis
Histone deacetylase 2 = Histone deacetylase 2 (Homo sapiens, UniProt Q92769); format: cell-based, Sf9
Histone deacetylase 4 = Histone deacetylase 4 (Homo sapiens, UniProt P56524); experiment: Inhibition of N-terminal GST-tagged/C-terminal His-tagged human recombinant HDAC4 (627 to 1084 residues) expressed in baculovirus-infected Sf9 cells assessed as reduction in 7-amino-4-methylcoumarin release measured every 5 mins by fluorescence based analysis
Histone deacetylase 7 = target: T1, Histone deacetylase 7 (Homo sapiens, UniProt Q8WUI4); experiment: Inhibition of N-terminal GST-tagged human HDAC7 (518 to end residues) expressed in baculovirus-infected Sf9 cells assessed as reduction in 7-amino-4-methylcoumarin release measured every 5 mins by fluorescence based analysis
T1 sequence (Q8WUI4 whole entry): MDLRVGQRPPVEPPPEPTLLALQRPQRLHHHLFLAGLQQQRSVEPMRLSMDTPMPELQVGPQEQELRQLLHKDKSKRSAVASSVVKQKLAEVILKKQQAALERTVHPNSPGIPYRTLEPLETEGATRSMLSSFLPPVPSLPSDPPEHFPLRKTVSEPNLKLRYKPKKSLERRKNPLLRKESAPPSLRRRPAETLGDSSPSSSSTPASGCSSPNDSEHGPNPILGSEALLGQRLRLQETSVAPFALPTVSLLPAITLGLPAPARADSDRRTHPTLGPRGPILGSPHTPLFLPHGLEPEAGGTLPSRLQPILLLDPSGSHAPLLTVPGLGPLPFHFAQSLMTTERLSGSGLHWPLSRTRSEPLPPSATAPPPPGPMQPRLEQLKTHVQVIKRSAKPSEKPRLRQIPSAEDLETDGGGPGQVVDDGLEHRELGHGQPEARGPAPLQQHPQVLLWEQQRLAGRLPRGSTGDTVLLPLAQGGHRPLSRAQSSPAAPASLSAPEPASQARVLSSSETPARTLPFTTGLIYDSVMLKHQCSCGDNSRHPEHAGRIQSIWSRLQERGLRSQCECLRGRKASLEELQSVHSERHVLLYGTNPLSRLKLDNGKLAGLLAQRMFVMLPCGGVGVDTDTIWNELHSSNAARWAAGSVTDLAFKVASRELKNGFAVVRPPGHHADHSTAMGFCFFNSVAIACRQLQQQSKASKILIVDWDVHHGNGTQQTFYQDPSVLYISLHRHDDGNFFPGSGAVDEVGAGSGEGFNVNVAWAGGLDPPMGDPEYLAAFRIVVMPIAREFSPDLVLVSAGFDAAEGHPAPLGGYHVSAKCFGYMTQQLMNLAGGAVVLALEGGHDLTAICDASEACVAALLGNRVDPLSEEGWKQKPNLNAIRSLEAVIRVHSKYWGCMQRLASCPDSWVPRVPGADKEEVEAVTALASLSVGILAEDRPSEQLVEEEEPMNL

Histone deacetylase 9 = Histone deacetylase 9 (Homo sapiens, UniProt Q9UKV0); experiment: Inhibition of C-terminal His-tagged human HDAC9 (604 to 1066 residues) expressed in baculovirus-infected Sf9 cells assessed as reduction in 7-amino-4-methylcoumarin release measured every 5 mins by fluorescence based analysis
MCF7 [5] = experiment: Induction of apoptosis in human MCF7 cells assessed as increase in caspase 3/7 activity at 1 to 3 uM measured after 48 hrs by ELISA; format: functional, cell-based; conditions: dose 1-3 µM
MCF7 [6] = experiment: Induction of apoptosis in human MCF7 cells assessed as reduction in Bcl2 gene expression at 3 uM incubated for 24 hrs by whole transcriptome analysis; format: functional, cell-based
MCF7 [7] = experiment: Induction of cell cycle arrest in human MCF7 cells assessed downregulation of CDK2 gene expression at 3 uM incubated for 24 hrs by whole transcriptome analysis; format: functional, cell-based
MCF7 [8] = experiment: Induction of cell cycle arrest in human MCF7 cells assessed downregulation of CDK6 gene expression at 3 uM incubated for 24 hrs by whole transcriptome analysis; format: functional, cell-based
MCF7 [9] = experiment: Downregulation of SIRT4 gene expression in human MCF7 cells at 3 uM incubated for 24 hrs by whole transcriptome analysis; format: functional, cell-based
[10] = target: Histone deacetylase (Homo sapiens) (UniProt Q13547+O15379+Q9UBN7+Q92769+Q9UQL6+Q8WUI4+Q9BY41+Q96DB2+P56524+Q9UKV0+Q969S8); experiment: Inhibition of HDAC in human MCF7 cells assessed as increase in acetylated histone H4 mRNA level at 3 uM incubated for 24 hrs by whole transcriptome analysis; format: cell-based
MCF7 [11] = experiment: Downregulation of NFkB2 gene expression in human MCF7 cells at 3 uM incubated for 24 hrs by whole transcriptome analysis; format: functional, cell-based
MCF7 [12] = experiment: Induction of cell cycle arrest in human MCF7 cells assessed downregulation of CDK1 gene expression at 3 uM incubated for 24 hrs by whole transcriptome analysis; format: functional, cell-based
MCF7 [13] = experiment: Induction of cell cycle arrest in human MCF7 cells assessed downregulation of E2F1 gene expression at 3 uM incubated for 24 hrs by whole transcriptome analysis; format: functional, cell-based
Homo sapiens [14] = species on record: Homo sapiens; experiment: Selectivity ratio of IC50 for inhibition of C-terminal His-tagged human recombinant full length HDAC3 (1 to 428 residues)/N-terminal GST-tagged human recombinant NCOR2 (395 to 489 residues) expressed in baculovirus-infected Sf9 cells to IC50 for inhibition of C-terminal FLAG/His-tagged human recombinant HDAC1 (1 to 482 residues) expressed in baculovirus-infected Sf9 cells
Homo sapiens [15] = species on record: Homo sapiens; experiment: Selectivity ratio of IC50 for inhibition of N-terminal GST-tagged human recombinant full length HDAC5 expressed in baculovirus-infected Sf9 cells to IC50 for inhibition of C-terminal FLAG/His-tagged human recombinant HDAC1 (1 to 482 residues) expressed in baculovirus-infected Sf9 cells
Homo sapiens [16] = species on record: Homo sapiens; experiment: Selectivity ratio of IC50 for inhibition of N-terminal GST-tagged human recombinant full length HDAC5 expressed in baculovirus-infected Sf9 cells to IC50 for inhibition of C-terminal 6XHis-tagged human recombinant full length HDAC2 (1 to 488 residues) expressed in baculovirus-infected Sf9 cells

Chain of Histone deacetylase 9 (Q9UKV0 whole entry, the tested form may be a part): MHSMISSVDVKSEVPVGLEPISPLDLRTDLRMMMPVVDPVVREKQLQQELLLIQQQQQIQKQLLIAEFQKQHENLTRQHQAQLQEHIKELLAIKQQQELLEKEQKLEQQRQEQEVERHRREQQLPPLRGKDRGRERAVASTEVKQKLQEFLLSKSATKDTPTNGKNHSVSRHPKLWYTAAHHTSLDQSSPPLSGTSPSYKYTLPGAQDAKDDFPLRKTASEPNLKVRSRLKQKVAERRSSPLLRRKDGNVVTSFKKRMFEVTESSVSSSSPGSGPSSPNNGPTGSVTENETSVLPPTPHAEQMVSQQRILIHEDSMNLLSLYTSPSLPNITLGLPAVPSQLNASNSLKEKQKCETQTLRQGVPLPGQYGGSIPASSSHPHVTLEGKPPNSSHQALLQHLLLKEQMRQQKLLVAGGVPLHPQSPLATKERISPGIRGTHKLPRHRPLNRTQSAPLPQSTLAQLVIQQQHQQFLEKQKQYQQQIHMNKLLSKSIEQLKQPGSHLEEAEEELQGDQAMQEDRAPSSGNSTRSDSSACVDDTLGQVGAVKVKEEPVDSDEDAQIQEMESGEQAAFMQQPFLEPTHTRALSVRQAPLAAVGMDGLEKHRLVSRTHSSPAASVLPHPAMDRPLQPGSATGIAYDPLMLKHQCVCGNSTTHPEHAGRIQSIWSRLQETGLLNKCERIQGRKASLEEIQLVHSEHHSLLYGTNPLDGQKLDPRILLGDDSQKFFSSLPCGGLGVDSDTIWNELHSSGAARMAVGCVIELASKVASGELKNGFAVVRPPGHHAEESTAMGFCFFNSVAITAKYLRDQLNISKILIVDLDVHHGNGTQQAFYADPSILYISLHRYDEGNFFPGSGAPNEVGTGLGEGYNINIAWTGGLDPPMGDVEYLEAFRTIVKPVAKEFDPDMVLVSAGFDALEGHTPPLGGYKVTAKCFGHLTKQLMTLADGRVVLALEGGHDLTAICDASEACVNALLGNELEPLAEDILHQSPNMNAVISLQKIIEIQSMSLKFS
Chain of Histone deacetylase 4 (P56524 whole entry, the tested form may be a part): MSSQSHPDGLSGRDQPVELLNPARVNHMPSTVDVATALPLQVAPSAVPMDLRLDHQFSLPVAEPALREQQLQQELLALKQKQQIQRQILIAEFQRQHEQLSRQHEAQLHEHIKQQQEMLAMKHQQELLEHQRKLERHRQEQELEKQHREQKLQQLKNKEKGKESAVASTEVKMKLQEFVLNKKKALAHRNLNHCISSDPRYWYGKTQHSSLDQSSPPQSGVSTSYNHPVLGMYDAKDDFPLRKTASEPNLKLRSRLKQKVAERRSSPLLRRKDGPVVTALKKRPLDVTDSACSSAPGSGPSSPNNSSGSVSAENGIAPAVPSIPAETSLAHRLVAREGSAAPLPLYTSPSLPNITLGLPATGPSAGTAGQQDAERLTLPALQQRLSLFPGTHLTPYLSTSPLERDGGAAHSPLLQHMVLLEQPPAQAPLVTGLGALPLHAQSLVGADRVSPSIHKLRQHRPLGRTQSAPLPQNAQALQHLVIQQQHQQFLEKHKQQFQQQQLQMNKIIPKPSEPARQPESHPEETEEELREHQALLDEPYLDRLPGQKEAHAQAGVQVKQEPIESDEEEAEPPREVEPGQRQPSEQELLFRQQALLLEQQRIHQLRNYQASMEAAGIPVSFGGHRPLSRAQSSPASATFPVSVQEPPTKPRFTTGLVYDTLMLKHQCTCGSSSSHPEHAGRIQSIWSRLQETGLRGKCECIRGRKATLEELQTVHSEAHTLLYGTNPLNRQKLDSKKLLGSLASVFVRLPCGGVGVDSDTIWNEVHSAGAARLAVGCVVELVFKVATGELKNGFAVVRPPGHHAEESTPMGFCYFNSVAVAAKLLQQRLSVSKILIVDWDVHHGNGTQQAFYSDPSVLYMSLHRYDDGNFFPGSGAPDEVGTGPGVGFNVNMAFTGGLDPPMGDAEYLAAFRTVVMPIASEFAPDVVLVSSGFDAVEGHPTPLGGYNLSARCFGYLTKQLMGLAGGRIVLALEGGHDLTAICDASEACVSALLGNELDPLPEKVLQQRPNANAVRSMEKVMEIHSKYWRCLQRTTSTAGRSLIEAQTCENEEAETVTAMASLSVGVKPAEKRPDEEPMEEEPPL
Chain of Cytochrome P450 2C9 (P11712 whole entry, the tested form may be a part): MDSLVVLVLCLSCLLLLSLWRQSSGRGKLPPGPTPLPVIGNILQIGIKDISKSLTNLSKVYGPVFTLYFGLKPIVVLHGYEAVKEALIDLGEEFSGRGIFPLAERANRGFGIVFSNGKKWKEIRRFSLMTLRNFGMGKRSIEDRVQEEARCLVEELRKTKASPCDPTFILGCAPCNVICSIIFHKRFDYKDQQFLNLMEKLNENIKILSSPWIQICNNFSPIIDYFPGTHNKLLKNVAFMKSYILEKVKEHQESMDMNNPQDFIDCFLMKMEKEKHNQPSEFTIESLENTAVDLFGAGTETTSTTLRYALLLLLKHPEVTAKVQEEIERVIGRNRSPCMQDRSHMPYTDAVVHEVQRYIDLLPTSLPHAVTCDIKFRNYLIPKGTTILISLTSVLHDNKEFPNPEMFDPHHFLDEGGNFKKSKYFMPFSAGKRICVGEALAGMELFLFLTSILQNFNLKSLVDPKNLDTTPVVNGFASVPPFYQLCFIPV
Chain of Histone deacetylase 2 (Q92769 whole entry, the tested form may be a part): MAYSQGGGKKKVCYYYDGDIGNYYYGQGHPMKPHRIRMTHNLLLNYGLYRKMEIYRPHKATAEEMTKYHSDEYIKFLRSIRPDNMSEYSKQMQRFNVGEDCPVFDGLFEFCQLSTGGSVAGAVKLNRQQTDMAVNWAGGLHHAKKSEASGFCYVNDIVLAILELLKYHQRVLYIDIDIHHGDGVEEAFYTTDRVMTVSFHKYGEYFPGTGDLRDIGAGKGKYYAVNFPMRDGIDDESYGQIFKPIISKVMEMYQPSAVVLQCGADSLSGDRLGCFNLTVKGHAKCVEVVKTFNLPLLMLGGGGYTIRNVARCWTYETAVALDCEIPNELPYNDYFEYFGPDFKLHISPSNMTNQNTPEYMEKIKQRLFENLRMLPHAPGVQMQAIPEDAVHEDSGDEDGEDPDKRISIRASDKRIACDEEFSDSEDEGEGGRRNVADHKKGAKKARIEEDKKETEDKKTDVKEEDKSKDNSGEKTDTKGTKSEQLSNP
Chain of Histone deacetylase 1 (Q13547 whole entry, the tested form may be a part): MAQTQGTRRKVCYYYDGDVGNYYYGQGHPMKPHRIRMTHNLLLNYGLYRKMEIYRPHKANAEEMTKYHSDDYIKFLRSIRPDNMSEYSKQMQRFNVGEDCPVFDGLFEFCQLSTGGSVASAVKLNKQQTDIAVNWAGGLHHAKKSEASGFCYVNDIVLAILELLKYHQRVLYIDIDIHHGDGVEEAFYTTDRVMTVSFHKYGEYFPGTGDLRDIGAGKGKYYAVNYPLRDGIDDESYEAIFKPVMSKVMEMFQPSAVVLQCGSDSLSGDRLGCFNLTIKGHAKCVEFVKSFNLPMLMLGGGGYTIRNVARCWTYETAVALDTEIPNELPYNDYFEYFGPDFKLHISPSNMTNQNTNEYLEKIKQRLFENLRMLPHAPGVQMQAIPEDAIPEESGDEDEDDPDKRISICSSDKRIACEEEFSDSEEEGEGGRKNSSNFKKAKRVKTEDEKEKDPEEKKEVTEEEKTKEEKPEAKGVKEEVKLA

SMILES: N=C(NO)c1ccc2nc(-c3cccc(-c4cn5ccccc5n4)c3)[nH]c2c1
- Activity (MCF7 [1]): Active
- half-life at 1 µM [2]: 7.1 min
- remaining at 1 h, 1 µM [3]: 99%
- half-life at 1 µM [4]: 17.6 min
- IC50 (Cytochrome P450 2C9): > 10 µM
- IC50 (Histone deacetylase 1): 0.55 µM
- IC50 (Histone deacetylase 2): 0.4 µM
- IC50 (Histone deacetylase 4): > 10 µM
- IC50 (Histone deacetylase 7): > 10 µM
- IC50 (Histone deacetylase 9): > 10 µM
- Activity (MCF7 [5]): Active
- Activity (MCF7 [6]): Active
- Activity (MCF7 [7]): Active
- Activity (MCF7 [8]): Active
- inhibition (MCF7 [9]): Active
- inhibition [10]: Active
- inhibition (MCF7 [11]): Active
- Activity (MCF7 [12]): Active
- Activity (MCF7 [13]): Active
- Ratio IC50 (Homo sapiens [14]): > 44
- Ratio IC50 (Homo sapiens [15]): > 44
- Ratio IC50 (Homo sapiens [16]): > 44
